Measured values reported in patent publication US20070254882A1, “Sulfamide Derivatives and Pharmaceutical Composition for Upregulation of Lipid Metabolism Comprising Same” (CRYSTAL GENOMICS, INC., priority 2004, published 2007).

Experiments:
human PPAR α [1] = molecular target: T1, human PPAR α (Homo sapiens, UniProt Q07869); assay: Exogeneous PPAR α agonist assay (GAL4 DNA binding domain/PPAR α ligand binding domain, luciferase) in HepG2 cells; assay type: cell-based; details: 25 μM compound, 48 hours, luciferase activity increase relative to the control
T1 construct: expressed in transfected cells; host or cells: HepG2 (ATCC HB-8065) or 293T cells (ATCC CRL-1573)
T1 sequence (Q07869 239-466 limits assumed): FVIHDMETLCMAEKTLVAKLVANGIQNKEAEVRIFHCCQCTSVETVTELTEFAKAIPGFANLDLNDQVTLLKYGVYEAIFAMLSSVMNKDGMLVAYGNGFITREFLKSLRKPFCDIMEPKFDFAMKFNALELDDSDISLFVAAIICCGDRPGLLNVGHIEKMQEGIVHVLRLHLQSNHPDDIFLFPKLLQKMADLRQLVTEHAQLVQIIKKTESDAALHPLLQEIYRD
Method: (§1) Step 1) Exogeneous PPAR α Agonist Assay
(§2) Cross-activation assay of the compounds of Examples 1 to 134 against human PPAR α was carried out using a DNA construct of PPAR α including its ligand binding domain and GAL4 DNA binding domain (Sher et al., Biochemistry 32, 5598-5604, 1993) to analyze whether any of the compounds binds to the ligand binding domain of PPAR α expressed by the construct to affect the PPAR α activity. When the GAL4 DNA binding domainm which is fused with PPAR α ligand binding domain, binds to UAS (upstream activation sequence) of firefly-luciferase, the luciferase is expressed. Therefore, the effect of each of the compounds of Examples on PPAR α activation can be evaluated by analyzing the activation of luciferase.
(§3) Specifically, 2×10^4 of HepG2 (ATCC HB-8065) or 293T cells (ATCC CRL-1573) were aliquotted into each well of a 96-well plate and cultured for overnight at 37° C. in a CO2 incubator (culture condition: DMEM, 10% FBS and 1% antibiotics).
(§4) The transformation of PPAR α DNA was traced as follows. First, a mixture of the following ingredients in amounts per well; Solution A (Promega) containing 50 ng of full length human PPAR α DNA, 50 ng of firefly-luciferase construct, 5 ng of Renilla-luciferase construct, 1.0 μl of PLUS™ reagent, and 8.3 μl of a serum-free medium containing no antibiotics; was prepared and kept at room temperature for 15 min. Solution B, which contained 0.5 μl of Lipofectamine™ reagent and 9.5 μl of serum-free medium without antibiotics per well, and Solution C, which contained 50 μl of serum-free medium per well), were prepared. Solutions A, B and C were mixed together to prepare lipofectamin-DNA complex, and the mixture was kept at room temperature for 15 min. Single layer of cells on each well of a 96-well plate were washed with serum-free DMEM, 70 μl of lipofectamine-DNA complex prepared above was added thereto, the plate was incubated at 37° C. in a 5% CO2 incubator for 3 hours to transform the cells, and […] of a diluted solution of each of the compounds of Examples 1 to 134 per well was added to each well to a final concentration 25 μM, and incubated at 37° C. in a CO2 incubator for 48 hours. Then, the medium was removed, 50 μl of passive lysis buffer (Promega) was added thereto, and the plate was shook at room temperature for 20 min to lysis cells. 40 μl of Luciferase Assay reagent of Dual Luciferase Kit […] per 20 μl of cell lysis buffer was added to the plate, followed by reacting at 20° C. for 8 seconds, and 40 μl of Stop & Glo reagent (Promega) as a stop solution was added thereto to quench the reaction. The luminescence intensities of F-luciferase and R-luciferase were measured with MicroLumat Plus (Berthord Technology).

human PPAR α [2] = molecular target: T1, human PPAR α; assay: Exogeneous PPAR α agonist assay (GAL4 DNA binding domain/PPAR α ligand binding domain, luciferase) in 293T cells; assay type: cell-based; set-up: scale not given here; details: 25 μM compound, 48 hours, luciferase activity increase relative to the control
Method: as §1, §2, §3, §4

| SMILES | Activity at 25 μM Step 1 HepG2 cell (human PPAR α [1]) | Activity at 25 μM Step 1 293T cell (human PPAR α [2]) |
| --- | --- | --- |
| Cc1ccc(-c2nc(COc3cccc(CN([C@H](C(=O)O)C(C)C)S(N)(=O)=O)c3)c(C)o2)cc1 [Example 2, (S)-3-methyl-2-[N-(sulfamoyl)-N-[3-[(5-methyl-2-p-tolyloxazol-4-yl)methoxy]benzyl]amino]butyric acid] | 25 | 6 |
| CCN(CC)S(=O)(=O)N(CC(=O)O)Cc1cccc(OCc2nc(-c3ccc(C(F)(F)F)cc3)oc2C)c1 [Example 7, [N—(N,N-diethylamino)sulfonyl-N-[3-[[2-(4-trifluoromethylphenyl)-5-methyloxazol-4-yl]methoxy]benzyl]amino]acetic acid] | 54 | 3 |
| Cc1oc(-c2ccc(C(F)(F)F)cc2)nc1COc1cccc(CN(CC(=O)O)S(=O)(=O)N(C)C(C)C)c1 [Example 8, [N—(N-isopropyl-N-methylamino)sulfonyl-N-[3-[[2-(4-trifluoromethylphenyl)-5-methyloxazol-4-yl]methoxy]benzyl]amino]acetic acid] | 31 | 4 |
| C=CCN(C)S(=O)(=O)N(CC(=O)O)Cc1cccc(OCc2nc(-c3ccc(C(F)(F)F)cc3)oc2C)c1 [Example 9, [N—(N-allyl-N-methylamino)sulfonyl-N-[3-[[2-(4-trifluoromethylphenyl)-5-methyloxazol-4-yl]methoxy]benzyl]amino]acetic acid] | 52 | 3 |
| C#CCN(C)S(=O)(=O)N(CC(=O)O)Cc1cccc(OCc2nc(-c3ccc(C(F)(F)F)cc3)oc2C)c1 [Example 10, [N—(N-methyl-N-propargylamino)sulfonyl-N-[3-[[2-(4-trifluoromethylphenyl)-5-methyloxazol-4-yl]methoxy]benzyl]amino]acetic acid] | 45 | 3 |
| Cc1oc(-c2ccc(C(F)(F)F)cc2)nc1COc1cccc(CN(CC(=O)O)S(=O)(=O)N2CCCCC2)c1 [Example 11, [N-(piperidinyl)sulfonyl-N-[3-[[2-(4-trifluoromethylphenyl)-5-methyloxazol-4-yl]methoxy]benzyl]amino]acetic acid] | 44 | 4 |
| CCN(c1cccc(C)c1)S(=O)(=O)N(CC(=O)O)Cc1cccc(OCc2nc(-c3ccc(C(F)(F)F)cc3)oc2C)c1 [Example 21, [N—(N-ethyl-N-m-tolylamino)sulfonyl-N-[3-[[2-(4-trifluoromethylphenyl)-5-methyloxazol-4-yl]methoxy]benzyl]amino]acetic acid] | 40 | 5 |
| Cc1oc(-c2ccc(C(F)(F)F)cc2)nc1CCOc1ccc(CN(CC(=O)O)S(=O)(=O)N(C)C)cc1 [Example 103, [N—(N,N-dimethylamino)sulfonyl-N-[4-[2-[2-(4-trifluoromethylphenyl)-5-methyloxazol-4-yl]ethoxy]benzyl]amino]acetic acid] | – | 2 |
| Cc1oc(-c2ccccc2)nc1CCOc1ccc(CN(CC(=O)O)S(=O)(=O)N(C)c2ccccc2)cc1 [Example 105, [N—[(N-methyl-N-phenyl)amino]sulfonyl-N-[4-[2-(2-phenyl-5-methyloxazol-4-yl)ethoxy]benzyl]amino]acetic acid] | – | 2 |
| Cc1oc(-c2ccccc2)nc1CCOc1ccc(CN(CC(=O)O)S(=O)(=O)N2CCc3ccccc32)cc1 [Example 116] | – | 2 |
| Cc1ccc(-c2nc(CCOc3ccc(CN(CC(=O)O)S(=O)(=O)N4CCc5ccccc54)cc3)c(C)o2)cc1 [Example 117, [N-(indolinyl)sulfonyl-N-[4-[2-[2-(4-methylphenyl)-5-methyloxazol-4-yl]ethoxy]benzyl]amino]acetic acid] | – | 3 |
| Cc1oc(-c2ccc(C(F)(F)F)cc2)nc1CCOc1ccc(CN(CC(=O)O)S(=O)(=O)N2CCc3ccccc32)cc1 [Example 118, [N-(indolinyl)sulfonyl-N-[4-[2-[2-(4-trifluoromethylphenyl)-5-methyloxazol-4-yl]ethoxy]benzyl]amino]acetic acid] | – | 2 |
| Cc1oc(-c2cccs2)nc1CCOc1ccc(CN(CC(=O)O)S(=O)(=O)N2CCc3ccccc32)cc1 [Example 119, [N-(indolinyl)sulfonyl-N-[4-[2-[2-(thiophen-2-yl)-5-methyloxazol-4-yl]ethoxy]benzyl]amino]acetic acid] | – | 2 |
| Cc1oc(-c2ccccc2)nc1CCOc1ccc(CN(CC(=O)O)S(=O)(=O)N2CCCc3ccccc32)cc1 [Example 120, [N-(1,2,3,4-tetrahydroquinolinyl)sulfonyl-N-[4-[2-(2-phenyl-5-methyloxazol-4-yl)ethoxy]benzyl]amino]acetic acid] | – | 2 |
| Cc1ccc(-c2nc(CCOc3ccc(CN(CC(=O)O)S(=O)(=O)N4CCCc5ccccc54)cc3)c(C)o2)cc1 [Example 121, [N-(1,2,3,4-tetrahydroquinolinyl)sulfonyl-N-[4-[2-[2-(4-methylphenyl)-5-methyloxazol-4-yl]ethoxy]benzyl]amino]acetic acid] | – | 2 |
| Cc1oc(-c2ccc(C(F)(F)F)cc2)nc1CCOc1ccc(CN(CC(=O)O)S(=O)(=O)N2CCCc3ccccc32)cc1 [Example 122, [N-(1,2,3,4-tetrahydroquinolinyl)sulfonyl-N-[4-[2-[2-(4-trifluoromethylphenyl)-5-methyloxazol-4-yl]ethoxy]benzyl]amino]acetic acid] | – | 2 |

Results, then the molecule that gave them:

| Activity at 25 μM Step 1 HepG2 cell (human PPAR α [1]) | Activity at 25 μM Step 1 293T cell (human PPAR α [2]) | SMILES |
| --- | --- | --- |
| – | 1 | Cc1oc(-c2cccs2)nc1CCOc1ccc(CN(CC(=O)O)S(=O)(=O)N(C)C)cc1 [Example 104, [N—(N,N-dimethylamino)sulfonyl-N-[4-[2-[2-(thiophen-2-yl)-5-methyloxazol-4-yl]ethoxy]benzyl]amino]acetic acid] |
| – | 2 | Cc1ccc(-c2nc(CCOc3ccc(CN(CC(=O)O)S(=O)(=O)N(C)c4ccccc4)cc3)c(C)o2)cc1 [Example 106, [N—[(N-methyl-N-phenyl)amino]sulfonyl-N-[4-[2-[2-(4-methylphenyl)-5-methyloxazol-4-yl]ethoxy]benzyl]amino]acetic acid] |
| – | 2 | Cc1oc(-c2cccs2)nc1CCOc1ccc(CN(CC(=O)O)S(=O)(=O)N(C)c2ccccc2)cc1 [Example 108] |
| – | 3 | Cc1oc(-c2ccccc2)nc1CCOc1ccc(CN(CC(=O)O)S(=O)(=O)N(C)c2ccc(Cl)cc2)cc1 [Example 109, [N—[[N-methyl-N-(4-chlorophenyl)]amino]sulfonyl-N-[4-[2-(2-phenyl-5-methyloxazol-4-yl)ethoxy]benzyl]amino]acetic acid] |
| – | 2 | Cc1ccc(-c2nc(CCOc3ccc(CN(CC(=O)O)S(=O)(=O)N(C)c4ccc(Cl)cc4)cc3)c(C)o2)cc1 [Example 110, [N—[[N-methyl-N-(4-chlorophenyl)]amino]sulfonyl-N-[4-[2-[2-(4-methylphenyl)-5-methyloxazol-4-yl]ethoxy]benzyl]amino]acetic acid] |
| – | 2 | Cc1oc(-c2ccc(C(F)(F)F)cc2)nc1CCOc1ccc(CN(CC(=O)O)S(=O)(=O)N(C)c2ccc(Cl)cc2)cc1 [Example 114, [N—[[N-methyl-N-(4-chlorophenyl)]amino]sulfonyl-N-[4-[2-[2-(4-trifluoromethylphenyl)-5-methyloxazol-4-yl]ethoxy]benzyl]amino]acetic acid] |
| – | 2 | Cc1oc(-c2cccs2)nc1CCOc1ccc(CN(CC(=O)O)S(=O)(=O)N(C)c2ccc(Cl)cc2)cc1 [Example 115, [N—[[N-methyl-N-(4-chlorophenyl)]amino]sulfonyl-N-[4-[2-[2-(thiophen-2-yl)-5-methyloxazol-4-yl]ethoxy]benzyl]amino]acetic acid] |
